Biological target: T1, Ammonium transporter MEP2 (Saccharomyces cerevisiae (strain ATCC 204508 / S288c), UniProt P41948)
T1 sequence (P41948 whole entry): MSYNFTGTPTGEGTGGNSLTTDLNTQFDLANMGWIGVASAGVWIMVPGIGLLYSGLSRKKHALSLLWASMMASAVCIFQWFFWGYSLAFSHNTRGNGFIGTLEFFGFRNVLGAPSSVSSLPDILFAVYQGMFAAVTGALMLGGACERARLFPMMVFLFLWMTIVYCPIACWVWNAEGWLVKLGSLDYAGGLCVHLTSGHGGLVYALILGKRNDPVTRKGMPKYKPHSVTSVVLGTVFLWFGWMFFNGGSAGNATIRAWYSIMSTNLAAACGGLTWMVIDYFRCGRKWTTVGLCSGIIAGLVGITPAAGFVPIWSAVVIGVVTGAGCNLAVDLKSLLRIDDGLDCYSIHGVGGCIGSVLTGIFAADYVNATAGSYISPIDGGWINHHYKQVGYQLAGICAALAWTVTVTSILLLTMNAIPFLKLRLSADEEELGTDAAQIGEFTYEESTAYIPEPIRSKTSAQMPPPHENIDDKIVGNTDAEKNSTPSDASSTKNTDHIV
Assay: MEP2-GFP fusion level modulators in yeast, SAR follow-up, S. cerevisiae, multiplex GFP fusions, cherry pick 3 (AID 488812)
Conditions: inactive by the depositor's call

EC50 | SMILES
68.2 µM | CCOC(=O)CS(=O)(=O)c1nc(-c2ccccc2)cc(C(F)(F)F)n1 [2-[4-phenyl-6-(trifluoromethyl)pyrimidin-2-yl]sulfonylacetic acid ethyl ester]
36100 µM | Oc1c(Cl)cc(Cl)c2cccnc12 [AS-229]
74.4 µM | Nc1ncnc(Nc2cc(Cl)cc(Cl)c2)c1[N+](=O)[O-] [MLS000581561]

Source: BindingDB's records for doi:10.7270/Q2MW2FMC (Nmmlsc, 2011)
